In patent US20170030929A1, “DIAGNOSIS OF CHRONIC KIDNEY DISEASE BY QUANTITATIVE ANALYSIS OF POST-TRANSLATIONAL MODIFICATIONS OF PLASMA PROTEINS” (EXCORLAB GMBH, priority 2014, published 2017):

Experiments:
[1] = target: albumin (Homo sapiens, UniProt P02768); conditions: literature references; cited from earlier work
[2] = target: in-vitro guanidylated albumin (Homo sapiens, UniProt P02768); assay: Effect of in-vitro guanidylation on protein bound fraction of albumin; conditions: albumin 75 μmol l^−1, ligand 7.5 μmol l^−1; over time of guanidylation (0-48 h)
Sequence of in-vitro guanidylated albumin (P02768 25-609): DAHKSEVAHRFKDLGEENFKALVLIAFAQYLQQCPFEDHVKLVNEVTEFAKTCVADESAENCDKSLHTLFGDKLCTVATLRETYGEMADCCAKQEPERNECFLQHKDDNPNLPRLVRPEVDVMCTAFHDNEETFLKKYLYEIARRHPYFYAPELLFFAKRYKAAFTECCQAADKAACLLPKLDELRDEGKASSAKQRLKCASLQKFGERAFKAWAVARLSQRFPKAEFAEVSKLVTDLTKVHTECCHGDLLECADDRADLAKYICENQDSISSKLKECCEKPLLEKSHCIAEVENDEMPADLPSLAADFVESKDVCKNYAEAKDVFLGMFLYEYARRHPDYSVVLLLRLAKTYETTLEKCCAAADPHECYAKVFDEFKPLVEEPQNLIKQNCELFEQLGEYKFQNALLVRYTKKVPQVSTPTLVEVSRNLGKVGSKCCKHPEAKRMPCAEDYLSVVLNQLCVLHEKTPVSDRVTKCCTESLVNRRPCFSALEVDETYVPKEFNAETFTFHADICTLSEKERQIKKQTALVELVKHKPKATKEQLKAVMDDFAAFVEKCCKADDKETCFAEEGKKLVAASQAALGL

Sequence of albumin (P02768 25-609): as above

In the case of `N[C@@H](Cc1c[nH]c2ccccc12)C(=O)O` [L-tryptophan], the “affinity to post-translational modified albumin as compared to indoxyl sulfate” value [1] is listed as “more than two orders of magnitude lower affinity” and the “decrease of binding of albumin caused by in-vitro guanidylation” value [2] is listed as 81%.
